Reference: US20230374025A1, “FGFR INHIBITOR COMPOUND AND USE THEREOF” (SHENZHEN KANGSU PHARMACEUTICAL TECHNOLOGY CO., LTD., priority 2021, published 2023)

Columns and labels:
Assay type in all cases: biochemical
FGFR1 V561M = target: T1, FGFR1 V561M (Homo sapiens, UniProt P11362, V561M); assay: Assay I: inhibitory activity against FGFR mutants (HTRF KinEASE-TK); details: ATP 5 μM, substrate TK 1 μM
T1 construct: purchased Signalchem F04-13G
Description: (§1) Assay I: Determination of Inhibitory Activity Against FGFR Mutants
(§2) 1. Reagents and Equipment
(§3) 2.1 Preparation of 1× Kinase Reaction Buffer:
(§4) 1× Kinase reaction buffer was formulated with 1× volume of 5× kinase reaction buffer and 4× volume of water; 5 mM MgCl2; and 1 mM DTT.
(§5) 2.3 Screening of Compounds:
(§6) 1. Diluting a compound 4-fold in a dilution plate with DMSO, with a starting compound concentration of 2 mM.
(§7) 2. Diluting the compound 40-fold into 1× kinase reaction buffer and shaking it on a shaker for 20 minutes.
(§8) 5. Adding 1 μl of the compound diluted in buffer to each well, sealing the plate with a sealing membrane and centrifuging the plate at 1000 g for 30 seconds and leaving it at room temperature for 10 minutes.
(§9) 6. Formulating 2.5×TK-substrate-biotin and ATP mixture with 1× enzyme reaction buffer and adding 2 μl of K-substrate-biotin/ATP mixture to the reaction plate.
(§10) 7. Sealing the plate with a sealing membrane and centrifuging the plate at 1000 g for 30 seconds and allowing it to react at room temperature for 50 minutes.
(§11) 8. Formulating 4× Sa-XL 665 (250 nM) with HTRF assay buffer.
(§12) 9. Adding 5 μl Sa-XL 665 and 5 μl TK-Antibody-Cryptate to each well, centrifuging it at 1000 g for 30 seconds, and allowing it to react for 1 hour at room temperature.
(§13) 10. Reading fluorescence signals at 615 nm (Cryptate) and 665 nm (XL665) with Biotek.
(§14) 3.1 Calculation of the ratio for each well: the ratio was calculated as 665/615 nm.
(§15) 3.3 Calculation of IC50 and plotting of inhibition curves for the compounds.
(§16) The IC50 (half inhibition concentration) of a compound was obtained using the following non-linear fitting equation, wherein data analysis was performed using Graphpad 6.0 software.
(§17) Y=Bottom+(Top−Bottom)/(1+10^((Log IC50−X)*Hill Slope)) • X: log value of compound concentration; and Y: inhibition rate (% inh)
(§18) 3.4 Validation of Results
(§19) Data were exported from Envision and analyzed manually. The ratios were converted to inhibition rates and IC50 was calculated by Prism GraphPad 6.0 from the inhibition rates. IC50 was calculated again by the ratios to verify accuracy of the results.

FGFR2 V564F = target: T2, FGFR2 V564F (Homo sapiens, UniProt P21802, V564F); assay: as above; details: ATP 10 μM, substrate TK 1 μM
T2 construct: purchased Signalchem F05-12FG
Description: as §1, §2, §3, §4, §5, §6, §7, §8, §9, §10, §11, §12, §13, §14, §15, §16, §17, §18, §19

FGFR3 V555M = target: T3, FGFR3 V555M (Homo sapiens, UniProt P22607, V555M); assay: as above; details: ATP 20 μM, substrate TK 1 μM
T3 construct: purchased Signalchem F06-12GG
Description: as §1, §2, §3, §4, §5, §6, §7, §8, §9, §10, §11, §12, §13, §14, §15, §16, §17, §18, §19

VEGFR2 = target: T4, VEGFR2 (Homo sapiens, UniProt P35968); assay: Assay I: VEGFR2 kinase inhibition (HTRF KinEASE-TK); details: ATP 5 μM, substrate TK 1 μM
T4 construct: purchased Carna 08-191
Description: as §1, §2, §3, §4, §5, §6, §7
3. Formulating 2×FGFR1 V561M/FGFR2 V564F/FGFR3 K650E/VEGFR2 with 1× of enzyme reaction buffer.
4. Adding 2 μl FGFR1 V561M/FGFR2 V564F/FGFR3 K650E/VEGFR2 kinase (formulated in step 3) to each well of the reaction plate.
as §8, §9, §10, §11, §12, §13, §14, §15, §16, §17, §18, §19
Positive control IC50 was within 3 times of the average value

T4 sequence (P35968 20-1356): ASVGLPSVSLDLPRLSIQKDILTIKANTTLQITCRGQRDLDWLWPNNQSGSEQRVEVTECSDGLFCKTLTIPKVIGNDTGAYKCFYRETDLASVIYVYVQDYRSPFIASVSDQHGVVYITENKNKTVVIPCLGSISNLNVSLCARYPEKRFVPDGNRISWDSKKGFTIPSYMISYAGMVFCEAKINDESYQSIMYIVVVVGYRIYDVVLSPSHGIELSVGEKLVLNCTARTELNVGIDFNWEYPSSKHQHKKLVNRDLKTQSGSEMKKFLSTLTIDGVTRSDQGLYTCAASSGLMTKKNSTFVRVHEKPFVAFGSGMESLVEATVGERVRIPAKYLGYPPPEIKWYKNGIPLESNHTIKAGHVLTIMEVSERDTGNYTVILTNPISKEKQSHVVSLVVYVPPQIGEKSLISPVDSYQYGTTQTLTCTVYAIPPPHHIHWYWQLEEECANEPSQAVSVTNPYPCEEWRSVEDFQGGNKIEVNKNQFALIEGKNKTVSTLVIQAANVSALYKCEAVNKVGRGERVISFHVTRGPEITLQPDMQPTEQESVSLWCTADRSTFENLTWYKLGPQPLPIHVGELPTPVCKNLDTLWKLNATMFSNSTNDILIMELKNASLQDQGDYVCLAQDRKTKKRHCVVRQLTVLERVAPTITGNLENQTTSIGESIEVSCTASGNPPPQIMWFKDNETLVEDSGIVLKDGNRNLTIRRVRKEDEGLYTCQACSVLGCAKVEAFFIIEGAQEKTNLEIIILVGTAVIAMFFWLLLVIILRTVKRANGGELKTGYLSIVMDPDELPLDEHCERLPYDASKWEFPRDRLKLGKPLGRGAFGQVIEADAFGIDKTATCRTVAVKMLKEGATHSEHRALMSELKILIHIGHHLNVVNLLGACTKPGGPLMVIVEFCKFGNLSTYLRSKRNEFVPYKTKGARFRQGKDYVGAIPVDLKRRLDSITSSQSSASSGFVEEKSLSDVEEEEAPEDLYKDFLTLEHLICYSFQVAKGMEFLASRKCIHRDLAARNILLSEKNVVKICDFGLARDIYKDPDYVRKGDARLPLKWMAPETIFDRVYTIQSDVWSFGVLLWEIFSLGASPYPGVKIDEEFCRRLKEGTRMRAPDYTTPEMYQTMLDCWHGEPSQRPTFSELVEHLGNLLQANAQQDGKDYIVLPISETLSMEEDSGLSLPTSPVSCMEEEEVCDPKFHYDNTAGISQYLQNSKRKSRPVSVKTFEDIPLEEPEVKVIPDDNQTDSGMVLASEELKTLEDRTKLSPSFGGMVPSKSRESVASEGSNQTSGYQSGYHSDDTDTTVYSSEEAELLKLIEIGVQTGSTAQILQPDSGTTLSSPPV
T1 sequence (P11362 22-822 V561M): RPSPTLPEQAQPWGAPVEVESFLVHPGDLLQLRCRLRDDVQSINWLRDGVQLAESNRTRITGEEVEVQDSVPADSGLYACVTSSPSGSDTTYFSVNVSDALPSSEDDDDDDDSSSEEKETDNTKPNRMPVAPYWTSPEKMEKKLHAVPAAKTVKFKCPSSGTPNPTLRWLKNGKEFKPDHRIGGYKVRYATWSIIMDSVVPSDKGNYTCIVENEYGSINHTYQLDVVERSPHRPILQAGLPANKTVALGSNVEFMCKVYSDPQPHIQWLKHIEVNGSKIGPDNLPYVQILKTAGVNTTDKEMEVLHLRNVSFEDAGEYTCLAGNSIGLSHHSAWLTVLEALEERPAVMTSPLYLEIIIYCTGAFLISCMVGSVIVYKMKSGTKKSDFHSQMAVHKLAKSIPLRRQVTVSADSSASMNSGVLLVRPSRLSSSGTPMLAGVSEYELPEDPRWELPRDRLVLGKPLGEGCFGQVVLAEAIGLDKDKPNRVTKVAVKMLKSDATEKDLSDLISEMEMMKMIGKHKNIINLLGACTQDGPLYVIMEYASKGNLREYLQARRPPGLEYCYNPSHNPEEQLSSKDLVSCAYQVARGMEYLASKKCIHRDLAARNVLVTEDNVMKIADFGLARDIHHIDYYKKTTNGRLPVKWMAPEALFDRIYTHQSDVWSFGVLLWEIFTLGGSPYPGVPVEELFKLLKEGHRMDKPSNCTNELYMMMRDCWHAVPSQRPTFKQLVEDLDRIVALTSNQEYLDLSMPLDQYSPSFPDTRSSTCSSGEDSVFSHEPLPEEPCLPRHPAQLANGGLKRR
T2 sequence (P21802 22-821 V564F): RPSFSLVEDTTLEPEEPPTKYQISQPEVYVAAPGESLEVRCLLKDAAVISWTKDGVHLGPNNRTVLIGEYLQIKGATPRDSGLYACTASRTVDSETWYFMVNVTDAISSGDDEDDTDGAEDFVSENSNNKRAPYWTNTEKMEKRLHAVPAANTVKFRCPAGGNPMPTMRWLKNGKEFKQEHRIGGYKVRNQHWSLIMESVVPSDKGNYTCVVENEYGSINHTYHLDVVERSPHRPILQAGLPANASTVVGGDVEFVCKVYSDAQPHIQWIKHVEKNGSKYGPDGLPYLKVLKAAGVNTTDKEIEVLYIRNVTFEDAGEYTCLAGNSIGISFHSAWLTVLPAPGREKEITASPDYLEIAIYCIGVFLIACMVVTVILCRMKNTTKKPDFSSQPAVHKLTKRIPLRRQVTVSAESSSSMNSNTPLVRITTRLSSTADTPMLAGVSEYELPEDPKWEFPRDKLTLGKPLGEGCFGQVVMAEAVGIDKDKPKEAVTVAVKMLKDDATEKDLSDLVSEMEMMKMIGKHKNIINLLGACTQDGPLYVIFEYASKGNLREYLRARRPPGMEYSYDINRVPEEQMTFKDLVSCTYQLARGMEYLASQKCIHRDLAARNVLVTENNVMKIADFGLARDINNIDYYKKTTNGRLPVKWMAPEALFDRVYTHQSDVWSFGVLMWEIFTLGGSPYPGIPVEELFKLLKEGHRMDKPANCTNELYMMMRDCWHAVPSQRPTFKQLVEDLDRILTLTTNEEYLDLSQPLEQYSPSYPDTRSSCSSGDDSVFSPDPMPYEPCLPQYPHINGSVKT
T3 sequence (P22607 397-806 V555M limits assumed): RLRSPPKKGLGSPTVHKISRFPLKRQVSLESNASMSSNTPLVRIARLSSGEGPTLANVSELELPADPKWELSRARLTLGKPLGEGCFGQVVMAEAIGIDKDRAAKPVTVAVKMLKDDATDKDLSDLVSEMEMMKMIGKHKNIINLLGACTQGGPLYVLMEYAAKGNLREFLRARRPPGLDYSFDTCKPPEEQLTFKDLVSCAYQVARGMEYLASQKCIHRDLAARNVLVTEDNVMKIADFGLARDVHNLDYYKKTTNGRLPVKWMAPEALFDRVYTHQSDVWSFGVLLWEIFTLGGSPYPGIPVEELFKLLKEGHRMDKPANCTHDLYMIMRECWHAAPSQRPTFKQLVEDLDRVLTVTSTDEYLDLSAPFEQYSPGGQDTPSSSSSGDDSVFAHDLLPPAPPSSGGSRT

| Structure (SMILES) | IC50 (FGFR1 V561M) | IC50 (FGFR2 V564F) | IC50 (FGFR3 V555M) | IC50 (VEGFR2) |
| --- | --- | --- | --- | --- |
| CC(Oc1ccc2[nH]nc(-c3nc4c([nH]3)CN(C(=O)OCCC#N)C4)c2c1)c1c(Cl)cncc1Cl (stereo not shown) [Compound 24, 2-cyanoethyl 2-(5-(1-(3,5-dichloropyridin-4-yl)ethoxy)-1H-indazol-3-yl)-4,6-dihydropyrrolo[3,4-d]imidazole-5(1H)-carboxylate] | 2.4 nM | 1.4 nM | 4.6 nM | 27.5 nM |
| CC(Oc1ccc2[nH]nc(-c3nc4c([nH]3)CN(C3CCN(C)CC3)C4)c2c1)c1c(Cl)cncc1Cl (stereo not shown) [Compound 3, 5-(1-(3,5-dichloropyridin-4-yl)ethoxy)-3-(5-(1-methylpiperidin-4-yl)-1,4,5,6-tetrahydropyrrolo[3,4-d]imidazol-2-yl)-1H-indazole] | 0.65 nM | 0.25 nM | 0.67 nM | 5.4 nM |
| CC(Oc1ccc2[nH]nc(-c3nc4c([nH]3)CN(S(C)(=O)=O)C4)c2c1)c1c(Cl)cncc1Cl (stereo not shown) [Compound 16, 5-(1-(3,5-dichloropyridin-4-yl)ethoxy)-3-(5-(methylsulfonyl)-1,4,5,6-tetrahydropyrrolo[3,4-d]imidazol-2-yl)-1H-indazole] | 0.39 nM | 0.22 nM | 0.35 nM | 22.1 nM |
| C[C@@H](Oc1ccc2[nH]nc(-c3nc4c([nH]3)CN(C3CCN(C)C3)C4)c2c1)c1c(Cl)cncc1Cl (stereo partly drawn) [Compound 36, 5-((R)-1-(3,5-Dichloropyridin-4-yl)ethoxy)-3-(5-(1-methylpyrrolidin-3-yl)-1,4,5,6-tetrahydropyrrolo[3,4-d]imidazol-2-yl)-1H-indazole] | 1.9 nM | 0.61 nM | 0.31 nM | 27.5 nM |
| CC(Oc1ccc2[nH]nc(-c3nc4c([nH]3)CN(CC3CCN(C)CC3)C4)c2c1)c1c(Cl)cncc1Cl (stereo not shown) [Compound 2, 5-(1-(3,5-dichloropyridin-4-yl)ethoxy)-3-(5-((1-methylpiperidin-4-yl)methyl)-1,4,5,6-tetrahydropyrrolo[3,4-d]imidazol-2-yl)-1H-indazole] | 0.21 nM | 0.1 nM | 0.05 nM | 2.6 nM |
| CC(Oc1ccc2[nH]nc(-c3nc4c([nH]3)CN(S(=O)(=O)c3cccnc3)C4)c2c1)c1c(Cl)cncc1Cl (stereo not shown) [Compound 7, 5-(1-(3,5-dichloropyridin-4-yl)ethoxy)-3-(5-(pyridin-3-ylsulfonyl)-1,4,5,6-tetrahydropyrrolo[3,4-d]imidazol-2-yl)-1H-indazole] | 1.6 nM | 3.1 nM | 4 nM | 42.9 nM |
| CC(Oc1ccc2[nH]nc(-c3nc4c([nH]3)CN(CCN3CCOCC3)C4)c2c1)c1c(Cl)cncc1Cl (stereo not shown) [Compound 12] | 1.2 nM | 0.29 nM | 0.21 nM | 14.2 nM |
| CC(Oc1ccc2[nH]nc(-c3nc4c([nH]3)CN(C(=O)CN3CCOCC3)C4)c2c1)c1c(Cl)cncc1Cl (stereo not shown) [Compound 13, 1-(2-(5-(1-(3,5-dichloropyridin-4-yl)ethoxy)-1H-indazol-3-yl)-4,6-dihydropyrrolo[3,4-d]imidazol-5(1H)-yl)-2-morpholinoethan-1-one] | 0.46 nM | 0.31 nM | 0.22 nM | 5.5 nM |

More lines, now with the values ahead:

| IC50 (FGFR1 V561M) | IC50 (FGFR2 V564F) | IC50 (FGFR3 V555M) | IC50 (VEGFR2) | Structure (SMILES) |
| --- | --- | --- | --- | --- |
| 1.3 nM | 0.45 nM | 0.46 nM | 6.3 nM | CNC(=O)N1Cc2nc(-c3n[nH]c4ccc(O[C@H](C)c5c(Cl)cncc5Cl)cc34)[nH]c2C1 [Compound 33, (R)-2-(5-(1-(3,5-dichloropyridin-4-yl)ethoxy)-1H-indazol-3-yl)-N-methyl-4,6-dihydropyrrolo[3,4-d]imidazole-5(1H)-carboxamide] |
| 0.81 nM | 0.36 nM | 0.18 nM | 7.6 nM | C[C@@H](Oc1ccc2[nH]nc(-c3nc4c([nH]3)CN(C(=O)[C@@H]3CCCN3C)C4)c2c1)c1c(Cl)cncc1Cl [Compound 45, 5-((R)-1-(3,5-dichloropyridin-4-yl)ethoxy)-3-(5-(methyl-L-prolinyl)-1,4,5,6-tetrahydropyrrolo[3,4-d]imidazol-2-yl)-1H-indazole] |
| 0.41 nM | 0.27 nM | 0.16 nM | 5.6 nM | CC(Oc1ccc2[nH]nc(-c3nc4c([nH]3)CN(C(=O)[C@@H]3CCNC3)C4)c2c1)c1c(Cl)cncc1Cl (stereo partly drawn) [Compound 9, (2-(5-(1-(3,5-dichloropyridin-4-yl)ethoxy)-1H-indazol-3-yl)-4,6-dihydropyrrolo[3,4-d]imidazol-5(1H)-yl)((R)-pyrrolidin-3-yl)ketone] |
| 0.39 nM | 0.32 nM | 0.26 nM | 4.7 nM | C[C@@H](Oc1ccc2[nH]nc(-c3nc4c([nH]3)CN(C(=O)CN3CCCC3)C4)c2c1)c1c(Cl)cncc1Cl [Compound 40, (R)-1-(2-(5-(1-(3,5-dichloropyridin-4-yl)ethoxy)-1H-indazol-3-yl)-4,6-dihydropyrrolo[3,4-d]imidazol-5(1H)-yl)-2-(pyrrolidin-1-yl)ethan-1-one] |
| 0.26 nM | 0.13 nM | 0.35 nM | 3.3 nM | C[C@@H](Oc1ccc2[nH]nc(-c3nc4c([nH]3)CN(C(=O)CN(C)C)C4)c2c1)c1c(Cl)cncc1Cl [Compound 43, (R)-1-(2-(5-(1-(3,5-dichloropyridin-4-yl)ethoxy)-1H-indazol-3-yl)-4,6-dihydropyrrolo[3,4-d]imidazol-5(1H)-yl)-2-(dimethylamino)ethan-1-one] |
| 0.11 nM | 0.09 nM | 0.03 nM | 6.1 nM | CC(Oc1ccc2[nH]nc(-c3nc4c([nH]3)CN(C(=O)CN(C)C)C4)c2c1)c1c(Cl)cncc1Cl (stereo not shown) [Compound 14, 1-(2-(5-(1-(3,5-dichloropyridin-4-yl)ethoxy)-1H-indazol-3-yl)-4,6-dihydropyrrolo[3,4-d]imidazol-5(1H)-yl)-2-(dimethylamino)ethan-1-one] |
| 0.87 nM | 0.16 nM | 0.14 nM | 13.6 nM | C[C@@H](Oc1ccc2[nH]nc(-c3nc4c([nH]3)CN(C(=O)CN3CC(O)C3)C4)c2c1)c1c(Cl)cncc1Cl [Compound 52, (R)-1-(2-(5-(1-(3,5-Dichloropyridin-4-yl)ethoxy)-1H-indazol-3-yl)-4,6-dihydropyrrolo[3,4-d]imidazol-5(1H)-yl)-2-(3-hydroxyazetidin-1-yl)ethan-1-one] |
| 0.26 nM | 0.23 nM | 0.1 nM | 2.4 nM | C[C@@H](Oc1ccc2[nH]nc(-c3nc4c([nH]3)CN(C(=O)CN3CC[C@@H](O)C3)C4)c2c1)c1c(Cl)cncc1Cl [Compound 41, 1-(2-(5-((R)-1-(3,5-Dichloropyridin-4-yl)ethoxy)-1H-indazol-3-yl)-4,6-dihydropyrrolo[3,4-d]imidazol-5(1H)-yl)-2-((R)-3-hydroxypyrrolidin-1-yl)ethan-1-one] |
| 1 nM | 0.18 nM | 0.33 nM | 10.3 nM | C[C@@H](Oc1ccc2[nH]nc(-c3nc4c([nH]3)CN(C(=O)CN3CC[C@H](O)C3)C4)c2c1)c1c(Cl)cncc1Cl [Compound 42, 1-(2-(5-((R)-1-(3,5-Dichloropyridin-4-yl)ethoxy)-1H-indazol-3-yl)-4,6-dihydropyrrolo[3,4-d]imidazol-5(1H)-yl)-2-((S)-3-hydroxypyrrolidin-1-yl)ethan-1-one] |
| 0.65 nM | 0.29 nM | 0.33 nM | 9.9 nM | C[C@@H](Oc1ccc2[nH]nc(-c3nc4c([nH]3)CN(C(=O)[C@@H]3CCCCN3)C4)c2c1)c1c(Cl)cncc1Cl [Compound 46, (2-(5-((R)-1-(3,5-dichloropyridin-4-yl)ethoxy)-1H-indazol-3-yl)-4,6-dihydropyrrolo[3,4-d]imidazol-5(1H)-yl)((S)-piperidin-2-yl)ketone] |
| 0.38 nM | 0.11 nM | 0.12 nM | 3.1 nM | CC(Oc1ccc2[nH]nc(-c3nc4c([nH]3)CN(C(=O)C3CCN(C)CC3)C4)c2c1)c1c(Cl)cncc1Cl (stereo not shown) [Compound 6, (2-(5-(1-(3,5-dichloropyridin-4-yl)ethoxy)-1H-indazol-3-yl)-4,6-dihydropyrrolo[3,4-d]imidazol-5(1H)-yl)(1-methylpiperidin-4-yl)ketone] |
